Assay results published in patent publication US6462038B1, “Androgen receptor modulator compounds and methods” (Ligand Pharmaceuticals, Inc., priority 1999, dated 2002).
Read-outs that look alike come from different tables or passages of the source.

Assays:
Assay type in all cases: cell-based
hAR = target: T1, hAR (Homo sapiens, UniProt P10275); assay: co-transfection assay, AR agonist, CV-1 cells; settings: for AR Agonist CV-1 Cells Efficacy (%): hAR in CV-1 cells, relative to maximum LUC production by reference agonist
T1 construct: expressed in transfected cells; host or cells: CV-1 cells (African green monkey kidney fibroblasts)
T1 sequence (P10275 1-920): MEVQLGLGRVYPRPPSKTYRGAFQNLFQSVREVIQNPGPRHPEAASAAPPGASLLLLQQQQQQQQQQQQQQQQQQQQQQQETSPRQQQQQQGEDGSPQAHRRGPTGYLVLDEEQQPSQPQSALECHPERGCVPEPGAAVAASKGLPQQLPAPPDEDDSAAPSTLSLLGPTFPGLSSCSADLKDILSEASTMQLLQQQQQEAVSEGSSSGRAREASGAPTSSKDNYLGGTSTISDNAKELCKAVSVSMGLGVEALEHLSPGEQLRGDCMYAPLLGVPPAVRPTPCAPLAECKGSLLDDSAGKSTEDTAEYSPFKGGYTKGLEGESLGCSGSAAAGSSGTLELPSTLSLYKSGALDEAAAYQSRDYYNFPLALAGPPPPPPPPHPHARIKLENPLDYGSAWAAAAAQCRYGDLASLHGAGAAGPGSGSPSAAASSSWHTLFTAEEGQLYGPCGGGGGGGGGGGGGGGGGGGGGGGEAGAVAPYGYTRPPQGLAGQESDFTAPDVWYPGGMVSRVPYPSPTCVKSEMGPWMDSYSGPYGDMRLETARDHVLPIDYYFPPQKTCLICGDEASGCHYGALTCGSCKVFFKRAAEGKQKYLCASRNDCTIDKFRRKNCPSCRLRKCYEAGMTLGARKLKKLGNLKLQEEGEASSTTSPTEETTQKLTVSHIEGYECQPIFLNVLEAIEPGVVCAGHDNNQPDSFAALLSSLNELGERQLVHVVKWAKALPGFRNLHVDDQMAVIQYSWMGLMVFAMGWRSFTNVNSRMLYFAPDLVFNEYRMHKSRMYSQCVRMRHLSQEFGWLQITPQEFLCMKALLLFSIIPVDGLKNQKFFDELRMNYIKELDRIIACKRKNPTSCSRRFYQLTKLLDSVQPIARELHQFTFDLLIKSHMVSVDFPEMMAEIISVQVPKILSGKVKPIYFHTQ

PR = target: T2, PR (Homo sapiens, UniProt P06401); assay: co-transfection assay, PR agonist
T2 construct: expressed in transfected cells; host or cells: CV-1 cells
T2 sequence (P06401 1-933): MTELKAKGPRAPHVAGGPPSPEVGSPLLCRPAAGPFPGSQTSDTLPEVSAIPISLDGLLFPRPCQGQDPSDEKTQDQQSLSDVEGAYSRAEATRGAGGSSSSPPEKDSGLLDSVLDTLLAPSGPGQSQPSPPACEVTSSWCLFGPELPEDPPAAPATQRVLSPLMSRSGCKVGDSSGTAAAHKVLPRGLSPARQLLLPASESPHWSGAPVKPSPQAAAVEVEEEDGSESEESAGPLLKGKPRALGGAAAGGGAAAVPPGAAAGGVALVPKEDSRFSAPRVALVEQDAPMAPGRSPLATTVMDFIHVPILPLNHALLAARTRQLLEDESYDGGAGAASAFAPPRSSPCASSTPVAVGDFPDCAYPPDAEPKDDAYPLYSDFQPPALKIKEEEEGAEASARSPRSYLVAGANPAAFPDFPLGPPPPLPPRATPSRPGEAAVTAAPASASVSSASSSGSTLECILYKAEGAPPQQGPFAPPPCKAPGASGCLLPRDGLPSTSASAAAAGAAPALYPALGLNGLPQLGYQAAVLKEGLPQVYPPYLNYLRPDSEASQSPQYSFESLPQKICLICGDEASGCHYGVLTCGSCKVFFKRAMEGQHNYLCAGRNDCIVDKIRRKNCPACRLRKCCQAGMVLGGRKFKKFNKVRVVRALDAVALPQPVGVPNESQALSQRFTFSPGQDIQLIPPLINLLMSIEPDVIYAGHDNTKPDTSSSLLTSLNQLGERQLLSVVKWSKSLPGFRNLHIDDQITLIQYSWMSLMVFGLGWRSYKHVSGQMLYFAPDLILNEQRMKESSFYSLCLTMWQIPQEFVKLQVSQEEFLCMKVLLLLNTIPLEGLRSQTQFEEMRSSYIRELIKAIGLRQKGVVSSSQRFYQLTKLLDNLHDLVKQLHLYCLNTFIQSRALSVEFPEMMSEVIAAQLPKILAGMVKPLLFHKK
Experimental: (§1) CV-1 cells (African green monkey kidney fibroblasts) were cultured in the presence of Dulbecco's Modified Eagle Medium (DMEM) supplemented with 10% charcoal resin-stripped fetal bovine serum (CH-FBS) then transferred to 96-well microtiter plates one day prior to transfection.
(§2) Three to four replicates were used for each sample.
(§3) After 40 hours, the cells were washed with PBS, lysed with a Triton X-100-based buffer and assayed for LUC and β-Gal activities using a luminometer or spectrophotometer, respectively. For each replicate, the normalized response (NR) was calculated as: […]

MR = target: T3, MR (Homo sapiens, UniProt P08235); assay: co-transfection assay, MR antagonist
T3 construct: expressed in transfected cells; host or cells: CV-1 cells
T3 sequence (P08235 1-984): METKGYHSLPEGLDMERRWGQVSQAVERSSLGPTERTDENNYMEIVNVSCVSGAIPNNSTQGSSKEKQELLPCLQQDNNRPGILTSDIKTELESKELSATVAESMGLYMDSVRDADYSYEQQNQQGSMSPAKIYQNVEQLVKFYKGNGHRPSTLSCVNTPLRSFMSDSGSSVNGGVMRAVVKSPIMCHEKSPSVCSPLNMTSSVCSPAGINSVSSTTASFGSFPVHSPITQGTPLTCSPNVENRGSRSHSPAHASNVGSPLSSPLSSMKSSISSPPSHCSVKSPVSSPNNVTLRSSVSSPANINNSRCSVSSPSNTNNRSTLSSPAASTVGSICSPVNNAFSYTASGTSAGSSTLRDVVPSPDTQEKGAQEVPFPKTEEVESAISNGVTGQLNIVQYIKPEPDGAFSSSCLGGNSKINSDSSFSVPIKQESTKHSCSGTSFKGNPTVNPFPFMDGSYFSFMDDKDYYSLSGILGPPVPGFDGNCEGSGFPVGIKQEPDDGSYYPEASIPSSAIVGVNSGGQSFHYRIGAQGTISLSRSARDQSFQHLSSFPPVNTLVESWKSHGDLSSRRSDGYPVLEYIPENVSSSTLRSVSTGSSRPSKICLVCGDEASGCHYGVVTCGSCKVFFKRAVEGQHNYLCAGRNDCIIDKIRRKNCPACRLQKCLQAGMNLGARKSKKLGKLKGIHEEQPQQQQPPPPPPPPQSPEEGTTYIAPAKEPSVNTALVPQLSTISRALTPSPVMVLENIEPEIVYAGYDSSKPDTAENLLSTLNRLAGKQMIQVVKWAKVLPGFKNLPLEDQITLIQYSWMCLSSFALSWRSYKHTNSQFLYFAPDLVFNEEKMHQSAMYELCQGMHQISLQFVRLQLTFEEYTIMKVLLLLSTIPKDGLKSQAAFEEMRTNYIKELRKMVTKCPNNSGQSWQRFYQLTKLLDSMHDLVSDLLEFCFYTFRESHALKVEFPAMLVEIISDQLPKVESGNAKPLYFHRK
Experimental: as §1, §2, §3

[1] = read-out: AR Potency Agon, Table 2

Row | Structure (SMILES) | EC50 (hAR) | AR Agonist CV-1 Cells Efficacy (%) (hAR) | EC50 (hAR; [1]) | EC50 (PR) | IC50 (MR)
1 | CCN1CCOc2cc3c(cc21)c(C(F)(F)F)cc(=O)n3C [Compound 104, 1-Ethyl-1,2,3,6-tetrahydro-6-methyl-9-(trifluoromethyl)-7H-[1,4]oxazino[3,2-g]quinolin-7-one] | > 10 µM | na (na = not active (i.e. efficacy of < 20 and potency of > 10,000 nM for the cotransfection assay, and Ki > 1000 nM for the binding assay)) | > 10 µM | > 10 µM | 1.8 µM
2 | O=c1cc(C(F)(F)F)c2cc3c(cc2[nH]1)OCCN3CC(F)(F)F [Compound 105, 1,2,3,6-Tetrahydro-1-(2,2,2-trifluoroethyl)-9-(trifluoromethyl)-7H-[1,4]oxazino[3,2-g]quinolin-7-one] | – | – | – | > 10 µM | > 10 µM
3 | O=C1COc2cc3[nH]c(=O)cc(C(F)(F)F)c3cc2N1CC(F)(F)F [Compound 137, 1,6-Dihydro-1-(2,2,2-trifluoroethyl)-9-(trifluoromethyl)-3H-[1,4]oxazino[3,2-g]-quinolin-2,7-dione] | > 10 µM | na (na = not active (i.e. efficacy of < 20 and potency of > 10,000 nM for the cotransfection assay, and Ki > 1000 nM for the binding assay)) | > 10 µM | > 10 µM | > 10 µM
4 | CN1CCOc2cc3c(cc21)c(C(F)(F)F)cc(=O)n3C [Compound 102, 1,2,3,6-Tetrahydro-1,6-dimethyl-9-(trifluoromethyl)-7H-[1,4]oxazino[3,2-g]quinolin-7-one] | > 10 µM | na^1 (na = not active (i.e. efficacy of < 20 and potency of > 10,000 nM for the cotransfection assay, and Ki > 1000 nM for the binding assay)) | > 10 µM | > 10 µM | > 10 µM
